By IC50 is commonly meant the point on the concentration scale where inhibition reaches its midpoint. Broadly, the EC50 is the concentration at which the effect is half-maximal.

One assay has as its target T1, WT human PTHR-1 (Homo sapiens, UniProt Q03431).
T1 construct: bioactivity of the resulting compound in full-length hPTHR-1 and a truncated version; expressed in transfected cells
T1 sequence (Q03431 27-593): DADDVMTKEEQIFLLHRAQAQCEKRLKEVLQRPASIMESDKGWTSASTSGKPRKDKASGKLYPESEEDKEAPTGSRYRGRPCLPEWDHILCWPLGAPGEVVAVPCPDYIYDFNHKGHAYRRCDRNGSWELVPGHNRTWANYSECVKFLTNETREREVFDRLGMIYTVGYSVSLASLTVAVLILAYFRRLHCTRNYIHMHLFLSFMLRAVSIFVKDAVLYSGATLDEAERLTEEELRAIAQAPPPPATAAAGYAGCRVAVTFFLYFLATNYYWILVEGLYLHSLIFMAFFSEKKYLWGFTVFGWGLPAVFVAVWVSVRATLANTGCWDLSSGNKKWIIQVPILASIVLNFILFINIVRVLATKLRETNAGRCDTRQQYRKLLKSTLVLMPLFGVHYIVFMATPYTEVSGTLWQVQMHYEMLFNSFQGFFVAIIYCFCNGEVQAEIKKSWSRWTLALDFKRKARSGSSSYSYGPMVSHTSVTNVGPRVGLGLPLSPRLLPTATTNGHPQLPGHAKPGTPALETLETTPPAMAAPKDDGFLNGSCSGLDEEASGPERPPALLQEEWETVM
Kind of assay: cAMP GloSensor dose-response in GP-2.3 cells expressing human PTHR-1. The format is cell-based. Particulars: for Fold PTH, nM (hPTHR1): EC50 relative to PTH(1-34). A digest of the protocol: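 Confluent cells preloaded with 0.5 mM d-luciferin at room temperature until luminescence baseline stabilised (30 min), then given varying agonist concentrations. Luminescence time course recorded after α/β-peptide addition. Means ±SEM of n>4 experiments, each in duplicate.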

For the next assay, the target named is T2, delNT PTHR1 (Homo sapiens, UniProt Q03431, DEL24-181).
T2 construct: expressed in transfected cells
T2 sequence (Q03431 with tags, fused parts or gaps DEL24-181): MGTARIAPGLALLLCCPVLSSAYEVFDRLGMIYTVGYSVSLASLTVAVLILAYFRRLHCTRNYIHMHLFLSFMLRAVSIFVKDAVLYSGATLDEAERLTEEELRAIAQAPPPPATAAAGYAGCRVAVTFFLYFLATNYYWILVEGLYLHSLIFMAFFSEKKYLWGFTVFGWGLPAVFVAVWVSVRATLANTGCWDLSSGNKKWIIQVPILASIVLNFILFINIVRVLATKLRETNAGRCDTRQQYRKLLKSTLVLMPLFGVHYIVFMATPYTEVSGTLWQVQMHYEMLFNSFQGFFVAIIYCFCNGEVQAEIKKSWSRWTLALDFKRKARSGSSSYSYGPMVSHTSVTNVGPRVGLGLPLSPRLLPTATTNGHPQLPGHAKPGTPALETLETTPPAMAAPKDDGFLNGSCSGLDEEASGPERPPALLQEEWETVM
Description: cAMP-inducing potency at truncated receptor delNT PTHR1. The format is cell-based. Particulars: Table 8; EC50 relative to PTH(1-34).

In another assay the target is T3, RG form of human PTHR-1 (Homo sapiens, UniProt Q03431).
T3 construct: expressed in transfected cells; host or cells: COS-7
T3 sequence (Q03431 27-593): T1 sequence (Q03431 27-593)
Kind of assay: Radio-ligand competition binding to RG form of human PTHR-1 (COS-7 membranes, 125I-M-PTH(1-15) tracer, high affinity Gαs mutant). Particulars: Table 1; 125I-M-PTH(1-15) tracer, Gαs mutant; read-out: RG IC50, nM, Binding (hPTHR-1). From the text:
Data are means (±SEM) of n≥4 experiments, each performed in duplicate.

In a further assay the target is T4, WT rat PTHR-1 (Rattus norvegicus, UniProt P25961).
T4 construct: expressed in transfected cells
T4 sequence (P25961 27-591): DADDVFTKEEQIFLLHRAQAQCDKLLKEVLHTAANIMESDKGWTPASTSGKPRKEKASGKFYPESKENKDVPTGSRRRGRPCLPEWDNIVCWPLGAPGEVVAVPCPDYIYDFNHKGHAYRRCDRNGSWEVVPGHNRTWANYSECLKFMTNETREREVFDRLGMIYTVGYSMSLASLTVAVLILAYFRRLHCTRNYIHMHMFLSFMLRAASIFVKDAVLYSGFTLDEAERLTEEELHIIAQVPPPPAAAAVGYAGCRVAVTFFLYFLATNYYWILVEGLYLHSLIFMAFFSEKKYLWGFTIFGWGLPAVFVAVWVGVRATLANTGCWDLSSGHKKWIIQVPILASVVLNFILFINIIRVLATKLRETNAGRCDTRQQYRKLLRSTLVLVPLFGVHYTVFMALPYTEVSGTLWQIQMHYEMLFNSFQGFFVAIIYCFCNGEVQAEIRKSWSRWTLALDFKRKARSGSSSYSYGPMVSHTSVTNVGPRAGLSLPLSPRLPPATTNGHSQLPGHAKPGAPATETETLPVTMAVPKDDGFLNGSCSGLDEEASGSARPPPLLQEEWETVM
Description: cAMP GloSensor dose-response in GR-35 cells expressing rat PTHR-1. The format is cell-based. Particulars: Table 7; GR-35 cells, 12-16 minutes after ligand addition; mean ± SEM.

A further assay concerns PTH2R/PTH1R. Description: cAMP response selectivity between PTH2R and PTH1R. The format is cell-based. Particulars: Table 16; most selective. From the text:
Selected analogs containing beta-amino acid substitutions selectively signal through one or the other of the two receptors. Without being bound to any underling biological phenomenon or mechanism, PTHR-2 likely serves an alternative function to PTHR-1 as it is highly expressed in the central nervous system. In contrast, PTHR-1 is highly expressed in bone and kidney, but not in the CNS. The analogs disclosed herein are thus useful as therapeutic compounds that a specific agonists or antagonists of PTHR-1 and PTHR-2.

Like-named read-outs stand apart in the source and are kept apart here. Starred links: 1 amine or outer side, 2 acyl side, 3 side chain; linkers in the order of their positions; H or OH if unused. Non-standard residues stand in square brackets, D forms with d. Residues, ends and D or L forms follow the SMILES beside them. X13 = O=C([C@H]1CNC[C@@H]1N[*:1])[*:2]; β3hA = C[C@H](N)CC(=O)O

Take `CC[C@H](C)[C@H](NC(=O)[C@H](CCC(=O)O)NC(=O)[C@H](CO)NC(=O)[C@@H](NC(=O)[C@@H](N)CO)C(C)C)C(=O)N[C@@H](CCC(N)=O)C(=O)N[C@@H](CC(C)C)C(=O)N[C@@H](CCSC)C(=O)N[C@H]1CNC[C@@H]1C(=O)N[C@@H](CC(N)=O)C(=O)N[C@@H](CC(C)C)C(=O)NCC(=O)N[C@@H](CCCCN)C(=O)N[C@@H](Cc1c[nH]cn1)C(=O)N[C@@H](CC(C)C)C(=O)N[C@@H](CC(N)=O)C(=O)N[C@@H](CO)C(=O)N[C@@H](CCSC)C(=O)N[C@@H](CCC(=O)O)C(=O)N[C@@H](CCCNC(=N)N)C(=O)N[C@H](C(=O)N[C@@H](CCC(=O)O)C(=O)N[C@@H](Cc1c[nH]c2ccccc12)C(=O)N[C@@H](CC(C)C)C(=O)N[C@@H](CCCNC(=N)N)C(=O)N[C@@H](CCCCN)C(=O)N[C@@H](CCCCN)C(=O)N[C@@H](CC(C)C)C(=O)N[C@@H](CCC(N)=O)C(=O)N[C@@H](CC(=O)O)C(=O)N[C@H](C(=O)N[C@@H](Cc1c[nH]cn1)C(=O)N[C@@H](CC(N)=O)C(=O)N[C@@H](Cc1ccccc1)C(N)=O)C(C)C)C(C)C` [APC(9)] (H-SVSEIQLM[X13]NLGKHLNSMERVEWLRKKLQDVHNF-NH2; N-terminus assumed): the “hPTHR1 EC50, nM (Means ± SEM)” value on WT human PTHR-1 (Table 8, cAMP-inducing potency, N-terminal modifications) is listed as “No activity”. Further, at delNT PTHR1, the “Fold PTH, nM (deINT PTHR1)” value was found to be 87.
As for `CC[C@H](C)[C@H](NC(=O)[C@H](CCC(=O)O)NC(=O)[C@H](CO)NC(=O)[C@@H](NC(=O)[C@@H](N)CO)C(C)C)C(=O)N[C@@H](CCC(N)=O)C(=O)N[C@@H](CC(C)C)C(=O)N[C@@H](CCSC)C(=O)N[C@@H](Cc1c[nH]cn1)C(=O)N[C@@H](CC(N)=O)C(=O)N[C@@H](CC(C)C)C(=O)NCC(=O)N[C@@H](CCCCN)C(=O)N[C@@H](Cc1c[nH]cn1)C(=O)N[C@@H](CC(C)C)C(=O)N[C@@H](CC(N)=O)C(=O)N[C@@H](CO)CC(=O)N[C@@H](CCSC)C(=O)N[C@@H](CCC(=O)O)C(=O)N[C@@H](CCCNC(=N)N)C(=O)N[C@H](CC(=O)N[C@@H](CCC(=O)O)C(=O)N[C@@H](Cc1c[nH]c2ccccc12)C(=O)N[C@@H](CC(C)C)C(=O)N[C@@H](CCCNC(=N)N)CC(=O)N[C@@H](CCCCN)C(=O)N[C@@H](CCCCN)C(=O)N[C@@H](CC(C)C)C(=O)N[C@@H](CCC(N)=O)CC(=O)N[C@@H](CC(=O)O)C(=O)N[C@H](C(=O)N[C@@H](Cc1c[nH]cn1)C(=O)N[C@@H](CC(N)=O)CC(=O)N[C@@H](Cc1ccccc1)C(N)=O)C(C)C)C(C)C` [C5], the IC50 on RG form of human PTHR-1 was found to be 0.4 nM. Moreover, the EC50 on WT human PTHR-1 (Table 1, GP-2.3 cells, read-out: cAMP (hPTHR-1) EC50) came out at 0.2 nM. Also, the “cAMP (hPTHR-1) Max” value at WT human PTHR-1 (Table 1, luminescence counts per second relative to PTH(1-34), 12-16 minutes after ligand addition) is on record as 1.01. Besides, the Max is 219 ± 39 luminescence counts per second × 10^−3 at WT human PTHR-1 (Table 6, GP-2.3 cells, 12-16 minutes after ligand addition, mean ± SEM) and 48 ± 17 luminescence counts per second × 10−3 at WT rat PTHR-1.
Turning to `CC[C@H](C)[C@H](NC(=O)[C@H](CCC(=O)O)NC(=O)[C@H](CO)NC(=O)[C@@H](NC(=O)C[C@H](C)N)C(C)C)C(=O)N[C@@H](CCC(N)=O)C(=O)N[C@@H](CC(C)C)C(=O)N[C@@H](CCSC)C(=O)N[C@@H](Cc1c[nH]cn1)C(=O)N[C@@H](CC(N)=O)C(=O)N[C@@H](CC(C)C)C(=O)NCC(=O)N[C@@H](CCCCN)C(=O)N[C@@H](Cc1c[nH]cn1)C(=O)N[C@@H](CC(C)C)C(=O)N[C@@H](CC(N)=O)C(=O)N[C@@H](CO)C(=O)N[C@@H](CCSC)C(=O)N[C@@H](CCC(=O)O)C(=O)N[C@@H](CCCNC(=N)N)C(=O)N[C@H](C(=O)N[C@@H](CCC(=O)O)C(=O)N[C@@H](Cc1c[nH]c2ccccc12)C(=O)N[C@@H](CC(C)C)C(=O)N[C@@H](CCCNC(=N)N)C(=O)N[C@@H](CCCCN)C(=O)N[C@@H](CCCCN)C(=O)N[C@@H](CC(C)C)C(=O)N[C@@H](CCC(N)=O)C(=O)N[C@@H](CC(=O)O)C(=O)N[C@H](C(=O)N[C@@H](Cc1c[nH]cn1)C(=O)N[C@@H](CC(N)=O)C(=O)N[C@@H](Cc1ccccc1)C(N)=O)C(C)C)C(C)C` [β^3Ala(1)] (H-[β3hA]VSEIQLMHNLGKHLNSMERVEWLRKKLQDVHNF-NH2), at WT human PTHR-1 (Table 8), the “Fold PTH, nM (hPTHR1)” value was found to be 2.2. For the same molecule, the EC50 on WT human PTHR-1 (Table 8, cAMP-inducing potency, N-terminal modifications, read-out: hPTHR1 EC50, nM (Means ± SEM)) came out at 0.2 ± 0.09 nM. Further, the “Fold PTH, nM (deINT PTHR1)” value on delNT PTHR1 is reported as 0.4.
In the case of `CC[C@H](C)[C@H](NC(=O)[C@H](CCC(=O)O)NC(=O)[C@H](CO)NC(=O)[C@@H](NC(=O)[C@@H](N)CO)C(C)C)C(=O)N[C@@H](CCC(N)=O)CC(=O)N[C@@H](CC(C)C)C(=O)N[C@@H](CCSC)C(=O)N[C@@H](Cc1c[nH]cn1)C(=O)N[C@@H](CC(N)=O)C(=O)N[C@@H](CC(C)C)C(=O)NCC(=O)N[C@@H](CCCCN)C(=O)N[C@@H](Cc1c[nH]cn1)C(=O)N[C@@H](CC(C)C)C(=O)N[C@@H](CC(N)=O)C(=O)N[C@@H](CO)C(=O)N[C@@H](CCSC)C(=O)N[C@@H](CCC(=O)O)C(=O)N[C@@H](CCCNC(=N)N)C(=O)N[C@H](C(=O)N[C@@H](CCC(=O)O)C(=O)N[C@@H](Cc1c[nH]c2ccccc12)C(=O)N[C@@H](CC(C)C)C(=O)N[C@@H](CCCNC(=N)N)C(=O)N[C@@H](CCCCN)C(=O)N[C@@H](CCCCN)C(=O)N[C@@H](CC(C)C)C(=O)N[C@@H](CCC(N)=O)C(=O)N[C@@H](CC(=O)O)C(=O)N[C@H](C(=O)N[C@@H](Cc1c[nH]cn1)C(=O)N[C@@H](CC(N)=O)C(=O)N[C@@H](Cc1ccccc1)C(N)=O)C(C)C)C(C)C` [β^3Gln(6)], the “Fold PTH, nM (hPTHR1)” value on WT human PTHR-1 (Table 8) is 159.7. The “Fold PTH, nM (deINT PTHR1)” value on delNT PTHR1 is 110. The “cAMP response PTH2R/PTH1R” value in the assay with PTH2R/PTH1R worked out at 133.

(Values after patent publication US10501518B2 (priority 2013, dated 2019).)
